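Results reflect a 48-hour exposure of cells in 96-well plates to compound at five concentrations. Abbreviation: GI50, concentration required for 50% inhibition of growth.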 Activity calls are given as the source filed them. Cut-off read from the data, not from the text of the source: active = GI50 up to about 1.1 µM and inactive = higher. A value given as a limit tells only on which side of the number the result lay.

Some test systems named below: NCI-H23; HT-29; HOP-62; SW-620; IGROV-1; 786-0; SF-295; BT-549; OVCAR-3; ACHN; PC-3; HCT-116; NCI-H460; UACC-62; DU-145; SK-MEL-28; RPMI-8226; UO-31; MCF7; LOX IMVI.
Test in all cases: growth of human tumour cells (NCI), 48 h

Turning to `CCOC(=O)c1c(NC(=O)c2ccc(Br)cc2)sc2c1CCCC2`, the GI50 in the assay on NCI-H23 is > 100 µM (inactive); in the assay with HT-29, > 100 µM (inactive); in the assay with HOP-62, > 100 µM (inactive); with SW-620, > 100 µM (inactive); in the assay with IGROV-1, 97.1 µM (inactive); with 786-0, > 100 µM (inactive). Also, the GI50 in the assay on SF-295, in the assay with BT-549, with OVCAR-3, in the assay on ACHN, in the assay with PC-3 and in the assay on HCT-116 was > 100 µM (inactive) each time. Further, the GI50 in the assay with NCI-H460 is 0.182 µM (active); in the assay with UACC-62, > 100 µM (inactive); with DU-145 it was > 100 µM (inactive); in the assay on SK-MEL-28, > 100 µM (inactive); with RPMI-8226, > 100 µM (inactive); in the assay with UO-31, > 100 µM (inactive). The GI50 in the assay with MCF7 is > 100 µM (inactive).
In the case of `O=C(NCCCNC(=O)c1ccc2c(O)c(O)ccc2c1)c1ccc2c(O)c(O)ccc2c1`, the GI50 with NCI-H23 was 22.1 µM (inactive); in the assay on HT-29, 26.2 µM (inactive); with HOP-62, 21.2 µM (inactive); in the assay on SW-620 it was 25.5 µM (inactive); in the assay with IGROV-1, 18.8 µM (inactive); with LOX IMVI it was 9.57 µM (inactive). Further, the GI50 in the assay on 786-0 is 23.9 µM (inactive); in the assay with SF-295, 19.2 µM (inactive); in the assay with BT-549 it was 18.7 µM (inactive); in the assay with OVCAR-3 it was 22.8 µM (inactive); in the assay with ACHN, 24.2 µM (inactive); in the assay on PC-3 it was 47.1 µM (inactive). The GI50 is 32.3 µM (inactive) in the assay on HCT-116; 29.9 µM (inactive) in the assay with UACC-62; 71.1 µM (inactive) in the assay with DU-145; 97.9 µM (inactive) in the assay with SK-MEL-28; 39.7 µM (inactive) with RPMI-8226; 26.6 µM (inactive) in the assay on UO-31. Moreover, the GI50 in the assay on MCF7 was 10.5 µM (inactive).
In the case of `CC#CCOC(=O)c1ccccc1OC(C)=O`, the GI50 with NCI-H23, in the assay with HOP-62, in the assay with SW-620, in the assay on IGROV-1, in the assay with LOX IMVI and with 786-0 was > 100 µM (inactive) in each case. For the same compound, the GI50 in the assay with SF-295, in the assay with BT-549, with ACHN, with PC-3, in the assay on HCT-116 and in the assay with NCI-H460 was > 100 µM (inactive) throughout. Also, the GI50 in the assay with UACC-62, in the assay with DU-145, with RPMI-8226, in the assay on UO-31 and in the assay on MCF7 was > 100 µM (inactive) in each case.
`N#CCc1nc(-c2cc3ccc(O)cc3oc2=O)cs1`: the GI50 in the assay with HT-29 is 72.9 µM (inactive); in the assay on HOP-62, > 100 µM (inactive); with SW-620 it was 39.6 µM (inactive); in the assay with IGROV-1 it was 49.1 µM (inactive); in the assay with LOX IMVI it was 46.2 µM (inactive); in the assay with 786-0, > 100 µM (inactive). Further, the GI50 with SF-295 was 33.2 µM (inactive); in the assay on BT-549 it was 25.2 µM (inactive); in the assay with ACHN, 57.9 µM (inactive); with PC-3, 34.3 µM (inactive); in the assay on HCT-116 it was 53.1 µM (inactive); with NCI-H460, 50 µM (inactive). The GI50 with UACC-62 is 22.6 µM (inactive); in the assay on DU-145, 83.4 µM (inactive); with SK-MEL-28, 35.2 µM (inactive); with RPMI-8226 it was 25.7 µM (inactive); in the assay with UO-31, 37.2 µM (inactive); in the assay on MCF7 it was 47.6 µM (inactive).
Regarding `N#CCCC(CC#N)N1CCN(C(CC#N)CCC#N)CC1` (stereo not drawn), the GI50 with NCI-H23, in the assay with HT-29, in the assay on HOP-62, with SW-620, with IGROV-1 and with 786-0 was > 100 µM (inactive) in each case. The GI50 with SF-295, with BT-549, in the assay on OVCAR-3, in the assay with ACHN, in the assay on PC-3 and in the assay on HCT-116 was > 100 µM (inactive) in each case. Besides, the GI50 with NCI-H460, in the assay on UACC-62, with DU-145, with SK-MEL-28, with RPMI-8226 and in the assay on UO-31 was > 100 µM (inactive) each time. For the same compound, in the assay on MCF7, the GI50 was > 100 µM (inactive).
As for `CC1=CC(=O)/C(=C/NC(=O)NN)C(=O)O1`, the GI50 is > 100 µM (inactive) in the assay with NCI-H23; > 100 µM (inactive) in the assay on HOP-62; > 100 µM (inactive) with SW-620; 58.5 µM (inactive) in the assay on IGROV-1; > 100 µM (inactive) with LOX IMVI; > 100 µM (inactive) with 786-0. Moreover, the GI50 with SF-295, in the assay with BT-549, in the assay with OVCAR-3, in the assay on ACHN, in the assay on PC-3 and in the assay with HCT-116 was > 100 µM (inactive) in each case. The GI50 in the assay with NCI-H460 was > 100 µM (inactive); in the assay on UACC-62, > 100 µM (inactive); in the assay on DU-145, > 100 µM (inactive); with SK-MEL-28 it was 54.5 µM (inactive); with UO-31, > 100 µM (inactive); in the assay on MCF7, > 100 µM (inactive).
In the case of `Nc1nc(Cl)cc(Nc2ccc3c(c2)CCC3)n1`, the GI50 with NCI-H23 was > 100 µM (inactive); in the assay with HT-29, 26.1 µM (inactive); in the assay on SW-620, 85.1 µM (inactive); in the assay with IGROV-1 it was 41.5 µM (inactive); with LOX IMVI, 56.5 µM (inactive); in the assay on 786-0 it was 52.2 µM (inactive). Further, the GI50 was > 100 µM (inactive) in the assay with SF-295; > 100 µM (inactive) in the assay on BT-549; > 100 µM (inactive) in the assay on OVCAR-3; > 100 µM (inactive) in the assay on ACHN; 61.2 µM (inactive) with PC-3; 43.8 µM (inactive) in the assay with HCT-116. The GI50 in the assay with NCI-H460 is 55.8 µM (inactive); with UACC-62, > 100 µM (inactive); in the assay with DU-145, > 100 µM (inactive); in the assay on SK-MEL-28, > 100 µM (inactive); in the assay with RPMI-8226, 19.7 µM (inactive); in the assay with UO-31 it was > 100 µM (inactive). The GI50 in the assay on MCF7 is > 100 µM (inactive).
On to `C[C@@](O)(/C=C/[C@H]1CC=CC(=O)O1)[C@@H](C[C@@H](O)\C=C/C=C\C=C\CO)OP(=O)(O)O` [FOSTRIECIN SODIUM], for which the GI50 in the assay on NCI-H23 is 10.2 µM (inactive); with HT-29, 1.75 µM (inactive); in the assay on HOP-62, 4.9 µM (inactive); in the assay with SW-620, 9.29 µM (inactive); with IGROV-1, 5.14 µM (inactive); in the assay with LOX IMVI, 2.16 µM (inactive). Also, the GI50 was 5.36 µM (inactive) with 786-0; 3.94 µM (inactive) in the assay on SF-295; 9.59 µM (inactive) with BT-549; 4.51 µM (inactive) with ACHN; 4.48 µM (inactive) with PC-3; 3.26 µM (inactive) in the assay with HCT-116. Further, the GI50 was 10.4 µM (inactive) with NCI-H460; 3.77 µM (inactive) in the assay on UACC-62; 3.21 µM (inactive) with DU-145; 7.28 µM (inactive) in the assay on SK-MEL-28; 1.1 µM (active) in the assay on RPMI-8226; 11 µM (inactive) with UO-31. Also, the GI50 in the assay with MCF7 is 2.97 µM (inactive).
